Test results as given in patent publication US10202376B2, “Heterocyclic compound” (Takeda Pharmaceutical Company Limited, priority 2014, dated 2019).

Biological target: T1, Human GRIN1 and human GRIN2B expressing HEK293 cells (Homo sapiens, UniProt Q13224)
T1 construct: host or cells: HEK293
Assay: NR2B Ca2+ flux assay
Format: cell-based
Conditions: 10 μM test compound, glutamic acid/glycine stimulated Fluo-4 fluorescence, FLIPR, read-out: inhibitory rate (@10 μM)
Method: Experimental Example 1 NR2B Ca^2+ Flux Assay
Human GRIN1 and human GRIN2B expressing HEK293 cells were purchased from ChanTest. The cells were cultured in a DMEM/F-12 (COSMO BIO, 10-092-CM) medium added with 10% FBS (fetal bovine serum, AusGene), 100 units/mL penicillin, 100 μg/mL streptomycin, 500 μg/mL neomycin, 100 μg/mL Zeocin, 5 μg/mL Blasticidin at 37° C., 5% CO2. The cells were detached from flask with trypsin the day before the assay, suspended in a seeding medium (DMEM (Invitrogen, 31053) added with 10% FBS, 100 units/mL penicillin, 100 μg/mL streptomycin) at 8×10^5 cells/mL, seeded by 25 μL per well in a 384-well plate (Falcon, 356663) at 20000 cells/well, and cultured overnight in an incubator. On the day of the assay, tetracycline (Wako Pure Chemical Industries, Ltd., 209-16561) was diluted with the seeding medium at 2 μg/mL, added at […] to the plate seeded with the cells, and cultured for 2 hr in an incubator. Thereafter, the medium was removed, and the cells were washed with 50 μL/well assay buffer (137 mM NaCl, 4 mM KCl, 1.8 mM CaCl2, 10 mM HEPES (pH 7.2), 10 mM Glucose, 0.1% BSA). Then, a loading buffer (assay buffer added with 2.5 uM Fluo-4AM, 2 mM Amaranth, 1 mM Tartrazine) was added at 25 μL/well, and loading was performed in the incubator for 30 min, and at room temperature for 15 min. A test compound (25 μL) was added, and the cells were stood for 15 min at room temperature. Using FLIPR (Molecular Devices), 25 μL of an assay buffer containing […], 30 μM glycine was added, and the fluorescence signal was measured every 3 seconds for 5 min. The inhibitory activity was calculated as a relative activity value that inhibits 100% of the cumulative value of the fluorescence value of a well added with a buffer free of glutamic acid, glycine, relative to the cumulative value of the fluorescence value of each well.

T1 sequence (Q13224 27-1484, other chains not shown): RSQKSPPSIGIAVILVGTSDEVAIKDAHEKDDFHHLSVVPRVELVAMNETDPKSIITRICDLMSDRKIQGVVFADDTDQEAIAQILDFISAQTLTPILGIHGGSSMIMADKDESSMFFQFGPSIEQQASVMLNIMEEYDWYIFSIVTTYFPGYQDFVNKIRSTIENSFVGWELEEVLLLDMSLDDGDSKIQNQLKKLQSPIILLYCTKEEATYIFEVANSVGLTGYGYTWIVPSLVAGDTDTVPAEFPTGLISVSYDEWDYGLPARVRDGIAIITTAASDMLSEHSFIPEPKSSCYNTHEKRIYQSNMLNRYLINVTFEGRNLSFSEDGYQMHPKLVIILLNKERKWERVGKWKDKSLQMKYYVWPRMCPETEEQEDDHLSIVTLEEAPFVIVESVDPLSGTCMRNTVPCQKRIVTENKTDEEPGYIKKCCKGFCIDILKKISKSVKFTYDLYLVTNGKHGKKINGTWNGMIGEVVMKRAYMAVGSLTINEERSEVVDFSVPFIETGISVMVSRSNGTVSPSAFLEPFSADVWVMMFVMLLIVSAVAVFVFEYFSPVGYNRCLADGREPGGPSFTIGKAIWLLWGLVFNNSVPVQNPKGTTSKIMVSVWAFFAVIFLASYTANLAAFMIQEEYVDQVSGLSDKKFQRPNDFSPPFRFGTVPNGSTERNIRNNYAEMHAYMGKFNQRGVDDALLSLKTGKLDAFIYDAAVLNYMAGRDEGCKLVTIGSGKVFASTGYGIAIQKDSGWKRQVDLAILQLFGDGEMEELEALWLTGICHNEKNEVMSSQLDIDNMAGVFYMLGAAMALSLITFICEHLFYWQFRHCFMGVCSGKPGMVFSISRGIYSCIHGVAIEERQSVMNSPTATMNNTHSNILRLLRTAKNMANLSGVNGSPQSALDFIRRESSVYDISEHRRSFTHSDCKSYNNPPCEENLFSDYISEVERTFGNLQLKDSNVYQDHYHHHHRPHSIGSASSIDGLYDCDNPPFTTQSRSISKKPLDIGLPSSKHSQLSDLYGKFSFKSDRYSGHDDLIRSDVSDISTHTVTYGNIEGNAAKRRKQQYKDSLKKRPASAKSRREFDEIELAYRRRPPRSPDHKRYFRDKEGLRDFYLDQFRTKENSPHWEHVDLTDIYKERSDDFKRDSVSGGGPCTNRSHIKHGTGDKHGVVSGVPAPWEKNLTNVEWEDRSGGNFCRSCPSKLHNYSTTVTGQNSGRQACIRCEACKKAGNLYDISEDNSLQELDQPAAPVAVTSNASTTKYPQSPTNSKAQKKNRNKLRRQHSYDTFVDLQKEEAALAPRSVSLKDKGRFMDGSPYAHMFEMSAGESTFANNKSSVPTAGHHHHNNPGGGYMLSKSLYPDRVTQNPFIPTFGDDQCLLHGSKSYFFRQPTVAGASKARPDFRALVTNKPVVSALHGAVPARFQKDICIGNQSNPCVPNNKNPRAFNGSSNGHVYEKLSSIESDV

**Q.** `O=C(Cc1cccc2nccn12)Nc1cc2ccccc2s1` [Example 65, N-(1-benzothiophen-2-yl)-2-(imidazo[1,2-a]pyridin-5-yl)acetamide] was tested. Which inhibition at 10 µM did it give?
**A.** 83%

**Q.** With `CN(C(=O)Cc1cccc2nccn12)c1ccc(C(F)(F)F)cc1` [Example 51, 2-(imidazo[1,2-a]pyridin-5-yl)-N-methyl-N-(4-(trifluoromethyl)phenyl)-acetamide] as the compound, how does the inhibition at 10 µM read?
**A.** 56%

**Q.** `N#Cc1ccc(NC(=O)Cc2cccc3nccn23)cc1` [Example 31, N-(4-cyanophenyl)-2-(imidazo[1,2-a]pyridin-5-yl)acetamide] was tested. Which inhibition at 10 µM did it give?
**A.** 78%

**Q.** For `O=C(Cc1cccc2nccn12)Nc1ccc(C(F)(F)F)c(Cl)c1` [Example 39, N-(3-chloro-4-(trifluoromethyl)phenyl)-2-(imidazo[1,2-a]pyridin-5-yl)acetamide], which inhibition at 10 µM is on record?
**A.** 90%

**Q.** Which inhibition at 10 µM does the source give for `O=C(Cc1cccc2nccn12)Nc1ccc(OC(F)(F)F)cn1` [Example 92, 2-(imidazo[1,2-a]pyridin-5-yl)-N-(5-(trifluoromethoxy)-pyridin-2-yl)acetamide] here?
**A.** 87%

**Q.** For `Cc1cccc(NC(=O)Cc2cccc3nccn23)c1` [Example 30, 2-(imidazo[1,2-a]pyridin-5-yl)-N-(3-methylphenyl)acetamide], which inhibition at 10 µM is on record?
**A.** 50%

**Q.** With `O=C(Cc1cccc2nccn12)Nc1ccc(OC(F)(F)F)cc1` [Example 5, 2-(imidazo[1,2-a]pyridin-5-yl)-N-(4-(trifluoromethoxy)phenyl)acetamide] as the compound, how does the inhibition at 10 µM read?
**A.** 93%

**Q.** `O=C(Cc1cccc2nccn12)Nc1ccc(Br)c(F)c1` [Example 83, N-(4-bromo-3-fluorophenyl)-2-(imidazo[1,2-a]pyridin-5-yl)acetamide] was tested. Which inhibition at 10 µM did it give?
**A.** 93%

**Q.** `O=C(Cc1cccc2nccn12)Nc1ccc(OC(F)(F)F)c(F)c1` [Example 14, N-(3-fluoro-4-(trifluoromethoxy)phenyl)-2-(imidazo[1,2-a]pyridin-5-yl) acetamide] was tested. Which inhibition at 10 µM did it give?
**A.** 92%

**Q.** With `COc1ccc2nccn2c1CC(=O)Nc1ccc(C(F)(F)F)cc1` [Example 89, 2-(6-methoxyimidazo[1,2-a]pyridin-5-yl)-N-(4-(trifluoromethyl)phenyl)-acetamide] as the compound, how does the inhibition at 10 µM read?
**A.** 92%

**Q.** Which inhibition at 10 µM does the source give for `CC(C)c1ccc(NC(=O)Cc2cccc3nccn23)cc1` [Example 66, 2-(imidazo[1,2-a]pyridin-5-yl)-N-(4-isopropylphenyl)acetamide] here?
**A.** 92%

**Q.** With `Cc1cc(CC(=O)Nc2ccc(C(F)(F)F)cc2)n2ccnc2c1` [Example 71, 2-(7-methylimidazo(1,2-a]pyridin-5-yl)-N-(4-(trifluoromethyl)phenyl)-acetamide] as the compound, how does the inhibition at 10 µM read?
**A.** 51%

**Q.** `COc1ccc2nccn2c1CC(=O)Nc1ccc(OC(F)(F)F)cc1` [Example 80, 2-(6-methoxyimidazo[1,2-a]pyridin-5-yl)-N-(4-(trifluoromethoxy)phenyl)acetamide] was tested. Which inhibition at 10 µM did it give?
**A.** 94%

**Q.** Which inhibition at 10 µM does the source give for `Cc1ccc2nccn2c1CC(=O)Nc1ccc(OC(F)(F)F)cc1` [Example 79, 2-(6-methylimidazo[1,2-a]pyridin-5-yl)-N-(4-(trifluoromethoxy)phenyl)acetamide] here?
**A.** 95%

**Q.** How did the inhibition at 10 µM turn out when `CC(C)(C)c1ccc(NC(=O)Cc2cccc3nccn23)cc1` [Example 64, N-(4-tert-butylphenyl)-2-(imidazo[1,2-a]pyridin-5-yl)acetamide] was run?
**A.** 84%

**Q.** `O=C(Cc1cccc2nccn12)Nc1ccc(I)c(F)c1` [Example 82, N-(3-fluoro-4-iodophenyl)-2-(imidazo[1,2-a]pyridin-5-yl)acetamide] was tested. Which inhibition at 10 µM did it give?
**A.** 94%

**Q.** How did the inhibition at 10 µM turn out when `O=C(Cc1cccc2nccn12)Nc1ccc(Oc2ccccc2)cc1` [Example 34, 2-(imidazo[1,2-a]pyridin-5-yl)-N-(4-phenoxyphenyl)acetamide] was run?
**A.** 71%

**Q.** For `O=C(Cc1cccc2nccn12)Nc1ccc(OC(F)F)cc1` [Example 6, N-(4-(difluoromethoxy)phenyl)-2-(imidazo[1,2-a]pyridin-5-yl)acetamide], which inhibition at 10 µM is on record?
**A.** 93%

**Q.** For `CCc1ccc(NC(=O)Cc2cccc3nccn23)cc1F` [Example 11, N-(4-ethyl-3-fluorophenyl)-2-(imidazo[1,2-a]pyridin-5-yl)acetamide], which inhibition at 10 µM is on record?
**A.** 94%

**Q.** With `O=C(Cc1cccc2nccn12)Nc1ccc(S(F)(F)(F)(F)F)cc1` [Example 62, 2-(imidazo[1,2-a]pyridin-5-yl)-N-(4-(pentafluoro-λ^6-sulfanyl)phenyl)-acetamide] as the compound, how does the inhibition at 10 µM read?
**A.** 82%

**Q.** With `O=C(Cc1cccc2nccn12)Nc1ccc(C2CC2)cc1` [Example 4, N-(4-cyclopropylphenyl)-2-(imidazo[1,2-a]pyridin-5-yl)acetamide] as the compound, how does the inhibition at 10 µM read?
**A.** 94%

**Q.** With `O=C(Cc1cccc2nccn12)Nc1ccc(C(F)(F)F)cc1` [Example 1, 2-(imidazo[1,2-a]pyridin-5-yl)-N-(4-(trifluoromethyl)phenyl)acetamide] as the compound, how does the inhibition at 10 µM read?
**A.** 91%

**Q.** With `COc1ccc(NC(=O)Cc2cccc3nccn23)cn1` [Example 24, 2-(imidazo[1,2-a]pyridin-5-yl)-N-(6-methoxypyridin-3-yl)acetamide] as the compound, how does the inhibition at 10 µM read?
**A.** 62%

**Q.** How did the inhibition at 10 µM turn out when `O=C(Cc1cccc2nccn12)Nc1ccc(C(F)(F)F)cc1F` [Example 43, N-(2-fluoro-4-(trifluoromethyl)phenyl)-2-(imidazo[1,2-a]pyridin-5-yl)acetamide] was run?
**A.** 90%

**Q.** How did the inhibition at 10 µM turn out when `O=C(Cc1cccc2nccn12)Nc1ccc(OC(F)(F)F)nc1` [Example 63, 2-(imidazo[1,2-a]pyridin-5-yl)-N-(6-(trifluoromethoxy)-pyridin-3-yl)acetamide] was run?
**A.** 85%

**Q.** With `O=C(Cc1cccc2nccn12)Nc1ccc(C2CC2)c(F)c1` [Example 12, N-(4-cyclopropyl-3-fluorophenyl)-2-(imidazo[1,2-a]pyridin-5-yl)acetamide] as the compound, how does the inhibition at 10 µM read?
**A.** 93%

**Q.** With `O=C(Cc1cccc2nccn12)Nc1ccc(F)cc1F` [Example 27, N-(2,4-difluorophenyl)-2-(imidazo[1,2-a]pyridin-5-yl)acetamide] as the compound, how does the inhibition at 10 µM read?
**A.** 66%

**Q.** With `CC(C(=O)Nc1ccc(OC(F)(F)F)cc1)c1cccc2nccn12` (stereo not shown) [Example 84, 2-(imidazo[1,2-a]pyridin-5-yl)-N-(4-(trifluoromethoxy)-phenyl)propanamide] as the compound, how does the inhibition at 10 µM read?
**A.** 94%

**Q.** For `Cc1cn2c(CC(=O)Nc3ccc(OC(F)(F)F)cc3)cccc2n1` [Example 85, 2-(2-methylimidazo[1,2-a]pyridin-5-yl)-N-(4-(trifluoromethoxy)-phenyl)acetamide], which inhibition at 10 µM is on record?
**A.** 91%

**Q.** For `Cc1ccc(NC(=O)Cc2cccc3nccn23)cc1F` [Example 15, N-(3-fluoro-4-methylphenyl)-2-(imidazo[1,2-a]pyridin-5-yl)acetamide], which inhibition at 10 µM is on record?
**A.** 91%

**Q.** `O=C(Cc1cccc2nccn12)Nc1ccc(C(F)(F)F)cc1Cl` [Example 37, N-(2-chloro-4-(trifluoromethyl)phenyl)-2-(imidazo[1,2-a]pyridin-5-yl)acetamide] was tested. Which inhibition at 10 µM did it give?
**A.** 81%

**Q.** How did the inhibition at 10 µM turn out when `CCc1ccc2nccn2c1CC(=O)Nc1ccc(OC(F)(F)F)cc1` [Example 78, 2-(6-ethylimidazo[1,2-a]pyridin-5-yl)-N-(4-(trifluoromethoxy)phenyl)acetamide] was run?
**A.** 97%

**Q.** Which inhibition at 10 µM does the source give for `O=C(Cc1cccc2nccn12)Nc1ccc(F)c(C(F)F)c1` [Example 21, N-(3-(difluoromethyl)-4-fluorophenyl)-2-(imidazo[1,2-a]pyridin-5-yl)acetamide] here?
**A.** 56%

**Q.** Which inhibition at 10 µM does the source give for `CC(C(=O)Nc1ccc(C(F)(F)F)cc1)c1cccc2nccn12` (stereo not shown) [Example 93, 2-(imidazo[1,2-a]pyridin-5-yl)-N-(4-(trifluoromethyl)phenyl)-propanamide] here?
**A.** 89%

**Q.** For `O=C(Cc1cccc2nccn12)Nc1ccc(F)c(F)c1` [Example 29, N-(3,4-difluorophenyl)-2-(imidazo[1,2-a]pyridin-5-yl)acetamide], which inhibition at 10 µM is on record?
**A.** 88%

**Q.** How did the inhibition at 10 µM turn out when `O=C(Cc1cccc2nccn12)Nc1ccc2c(c1)CCO2` [Example 67, N-(2,3-dihydro-1-benzofuran-5-yl)-2-(imidazo[1,2-a]pyridin-5-yl)acetamide] was run?
**A.** 78%

**Q.** With `O=C(Cc1cccc2nccn12)Nc1ccc(OC2CCC2)cc1` [Example 75, N-(4-(cyclobutyloxy)phenyl)-2-(imidazo[1,2-a]pyridin-5-yl)acetamide] as the compound, how does the inhibition at 10 µM read?
**A.** 68%

**Q.** `CCN(C(=O)Cc1cccc2nccn12)c1ccc(OC(F)(F)F)cc1` [Example 59, N-ethyl-2-(imidazo[1,2-a]pyridin-5-yl)-N-(4-(trifluoromethoxy)-phenyl)acetamide] was tested. Which inhibition at 10 µM did it give?
**A.** 57%

**Q.** `O=C(Cc1cccc2nccn12)Nc1ccc(Cl)c(F)c1` [Example 7, N-(4-chloro-3-fluorophenyl)-2-(imidazo[1,2-a]pyridin-5-yl)acetamide] was tested. Which inhibition at 10 µM did it give?
**A.** 90%

**Q.** Which inhibition at 10 µM does the source give for `O=C(Cc1cccc2nccn12)Nc1cc(F)c(F)c(F)c1` [Example 9, 2-(imidazo[1,2-a]pyridin-5-yl)-N-(3,4,5-trifluorophenyl)acetamide] here?
**A.** 87%
